From patent US20240327334A1, “Covalent Inhibitors As Antiviral Agents” (Enanta Pharmaceuticals, Inc., priority 2022, published 2024)

How the values were obtained:
[1] = target: SARS-CoV-2 Papain-like (PLpro) protease (Severe acute respiratory syndrome coronavirus 2, UniProt P0DTD1); assay: SARS-CoV-2 Papain-like (PLpro) protease biochemical enzyme inhibition assay (ubiquitin-fluorophore substrate, Ub-R110); conditions: Ub-R110 substrate; run in duplicate; read-out: PLpro IC50
[2] = tested on: SARS-CoV-2 replicon; assay: microbe, parasite or virus in culture; format: cell-based; conditions: Severe acute respiratory syndrome coronavirus 2, Huh-7

## C[C@H](NC(=O)c1ccccc1CNC(=O)C(=O)NCC#N)c1cc(C(F)(F)F)nc2ccccc12 [Example 327]
[1]
  IC50: < 100 nM
[2]
  EC50: 1000 to 10000 nM

## CC(=O)N1CCN(c2cc(C3(NC(=O)c4ccccc4CNC(=O)C(=O)NCC#N)CC3)c3ccccc3c2)CC1 [Example 328]
[1]
  IC50: < 100 nM
[2]
  EC50: 1000 to 10000 nM

## N#CN1CCC(F)(C(=O)NCc2ccccc2C(=O)NC2(c3cc(Br)cc4ccccc34)CC2)C1 (centres unmarked) [Example 329]
[1]
  IC50: < 100 nM
[2]
  EC50: < 1000 nM

## N#CCNC(=O)C(=O)NCc1ccccc1C(=O)NC1(c2cc(N3CC(O)C3)cc3ccccc23)CC1 [Example 330]
[1]
  IC50: < 100 nM
[2]
  EC50: 1000 to 10000 nM

## CN1CCC1COc1ccc(CNC(=O)C(=O)NCC#N)c(C(=O)NC2(c3cccc4ccccc34)CC2)c1 (centres unmarked) [Example 331]
[1]
  IC50: < 100 nM
[2]
  EC50: < 1000 nM

## C[C@@H](C#Cc1nccs1)NC(=O)C(=O)NCc1ccccc1C(=O)NC1(c2ccc3nn(C)cc3c2F)CC1 [Example 333]
[1]
  IC50: < 100 nM
[2]
  EC50: < 1000 nM

## COc1cc(C2(NC(=O)c3ccccc3CNC(=O)C(=O)N[C@@H](C)C#Cc3ccc(C#N)cc3F)CC2)cc2cn(C3CC3)nc12 [Example 334]
[1]
  IC50: < 100 nM
[2]
  EC50: < 1000 nM

## C[C@@H](C#Cc1nccs1)NC(=O)C(=O)NCc1ccccc1C(=O)NC1(c2cc(Cl)c3nn(C4CC4)cc3c2)CC1 [Example 335]
[1]
  IC50: < 100 nM
[2]
  EC50: < 1000 nM

## COc1cc(C2(NC(=O)c3ccccc3CNC(=O)C(=O)N[C@@H](C)C#Cc3nccs3)CC2)cc2cn(C3CC3)nc12 [Example 336]
[1]
  IC50: < 100 nM
[2]
  EC50: < 1000 nM

## Cn1cc2cc(C3(NC(=O)c4ccccc4CNC(=O)C(=O)NCC#Cc4nccs4)CC3)ccc2n1 [Example 337]
[1]
  IC50: < 100 nM
[2]
  EC50: < 1000 nM

## C#CCNC(=O)C(=O)NCc1ccccc1C(=O)NC1(c2ccc3nn(C)cc3c2)CC1 [Example 338]
[1]
  IC50: < 100 nM
[2]
  EC50: < 1000 nM

## Cn1cc2cc(C3(NC(=O)c4ccccc4CNC(=O)C(=O)NCC#N)CC3)ccc2n1 [Example 341]
[1]
  IC50: 100 to 1000 nM
[2]
  EC50: > 10000 nM

## C#CCNC(=O)C(=O)NCc1ccccc1C(=O)NC1(c2cccc3nn(C)cc23)CC1 [Example 342]
[1]
  IC50: < 100 nM
[2]
  EC50: < 1000 nM

## C#CCNC(=O)C(=O)NCc1ccccc1C(=O)NC1(c2cc(OC)c3nn(C4CC4)cc3c2)CC1 [Example 343]
[1]
  IC50: < 100 nM
[2]
  EC50: < 1000 nM

## C#CCNC(=O)C(=O)NCc1ccccc1C(=O)NC1(c2ccc3c(cnn3C)c2)CC1 [Example 344]
[1]
  IC50: < 100 nM
[2]
  EC50: < 1000 nM

## Cn1ncc2cc(C3(NC(=O)c4ccccc4CNC(=O)C(=O)NCC#Cc4nccs4)CC3)ccc21 [Example 345]
[1]
  IC50: < 100 nM
[2]
  EC50: < 1000 nM

## C[C@@H](C#Cc1nccs1)NC(=O)C(=O)NCc1ccccc1C(=O)NC1(c2ccc3c(cnn3C)c2)CC1 [Example 346]
[1]
  IC50: < 100 nM
[2]
  EC50: < 1000 nM

## N#CCNC(=O)C(=O)NCc1ccccc1C(=O)NC1(c2cc(-c3cccs3)cc3ccccc23)CC1 [Example 347]
[1]
  IC50: < 100 nM
[2]
  EC50: < 1000 nM

## COc1ccc2cccc(C3(NC(=O)c4ccccc4CNC(=O)C(=O)NCC#N)CC3)c2c1 [Example 348]
[1]
  IC50: < 100 nM
[2]
  EC50: 1000 to 10000 nM

## N#CCNC(=O)C(=O)NCc1ccccc1C(=O)NC1(c2cc(-c3cncs3)cc3ccccc23)CC1 [Example 349]
[1]
  IC50: < 100 nM
[2]
  EC50: < 1000 nM

## N#CCNC(=O)C(=O)NCc1ccccc1C(=O)NC1(c2cc(-c3ccc(CO)s3)cc3ccccc23)CC1 [Example 350]
[1]
  IC50: < 100 nM
[2]
  EC50: < 1000 nM

## COc1ccc(-c2cc(C3(NC(=O)c4ccccc4CNC(=O)C(=O)NCC#N)CC3)c3ccccc3c2)s1 [Example 351]
[1]
  IC50: < 100 nM
[2]
  EC50: < 1000 nM

## COCc1ccc(-c2cc(C3(NC(=O)c4ccccc4CNC(=O)C(=O)NCC#N)CC3)c3ccccc3c2)s1 [Example 352]
[1]
  IC50: < 100 nM
[2]
  EC50: < 1000 nM

## CC(C)(O)Cn1cc(-c2cc(C3(NC(=O)c4ccccc4CNC(=O)C(=O)NCC#N)CC3)c3ccccc3c2)cn1 [Example 353]
[1]
  IC50: < 100 nM
[2]
  EC50: < 1000 nM

## CC(C)(O)c1ccc(-c2cc(C3(NC(=O)c4ccccc4CNC(=O)C(=O)NCC#N)CC3)c3ccccc3c2)s1 [Example 354]
[1]
  IC50: < 100 nM
[2]
  EC50: < 1000 nM

## CN(C)S(=O)(=O)n1cc(-c2cc(C3(NC(=O)c4ccccc4CNC(=O)C(=O)NCC#N)CC3)c3ccccc3c2)cn1 [Example 355]
[1]
  IC50: < 100 nM
[2]
  EC50: < 1000 nM

## CS(=O)(=O)n1cc(-c2cc(C3(NC(=O)c4ccccc4CNC(=O)C(=O)NCC#N)CC3)c3ccccc3c2)cn1 [Example 356]
[1]
  IC50: < 100 nM
[2]
  EC50: 1000 to 10000 nM

## N#CCNC(=O)C(=O)NCc1ccccc1C(=O)NC1(c2cc(-c3cnn(C4CC4)c3)cc3ccccc23)CC1 [Example 357]
[1]
  IC50: < 100 nM
[2]
  EC50: < 1000 nM

## COC(=O)/C=C/CNC(=O)C(=O)NCc1cc(F)c(F)cc1C(=O)N[C@H](C)c1cccc2ccccc12 [Example 362]
[1]
  IC50: < 100 nM
[2]
  EC50: < 1000 nM

## C[C@@H](NC(=O)c1cc(F)c(F)cc1CNC(=O)C(=O)NCC#N)c1cccc2ccccc12 [Example 363]
[1]
  IC50: 100 to 1000 nM
[2]
  EC50: < 1000 nM

## N#CCNC(=O)C(=O)NCc1cnccc1C(=O)NC1(c2cccc3ccccc23)CC1 [Example 366]
[1]
  IC50: < 100 nM
[2]
  EC50: 1000 to 10000 nM

## N#CCNC(=O)C(=O)NCc1ccccc1C(=O)NC1(c2ccc3sc4ccccc4c3c2)CC1 [Example 369]
[1]
  IC50: < 100 nM
[2]
  EC50: 1000 to 10000 nM

## N#CCNC(=O)C(=O)NCc1ccccc1C(=O)NC1(c2cccc(C(F)(F)F)c2Cl)CC1 [Example 370]
[1]
  IC50: 100 to 1000 nM
[2]
  EC50: 1000 to 10000 nM

## N#CCNC(=O)C(=O)NCc1ccccc1C(=O)NC1(c2cccc(-c3ccc(F)cc3)c2Cl)CC1 [Example 380]
[1]
  IC50: 100 to 1000 nM
[2]
  EC50: > 10000 nM

## C#CCNC(=O)C(=O)NCc1ccccc1C(=O)NC1(c2cccc(-c3cnn(C4CC4)c3)c2Cl)CC1 [Example 381]
[1]
  IC50: < 100 nM
[2]
  EC50: < 1000 nM

## N#CCNC(=O)C(=O)NCc1ccccc1C(=O)NC1(c2cccc(-c3cccs3)c2Cl)CC1 [Example 382]
[1]
  IC50: < 100 nM
[2]
  EC50: 1000 to 10000 nM

## C#CCNC(=O)C(=O)NCc1ccccc1C(=O)NC1(c2cccc(-c3cccs3)c2Cl)CC1 [Example 383]
[1]
  IC50: < 100 nM
[2]
  EC50: < 1000 nM

## C#CCNC(=O)C(=O)NCc1ccccc1C(=O)NC1(c2cc(-c3cnn(C4CC4)c3)ccc2Cl)CC1 [Example 384]
[1]
  IC50: < 100 nM
[2]
  EC50: < 1000 nM

## O=C(NCC#Cc1nccs1)C(=O)NCc1ccccc1C(=O)NC1(c2cccc(-c3cnn(C4CC4)c3)c2Cl)CC1 [Example 385]
[1]
  IC50: < 100 nM
[2]
  EC50: < 1000 nM

## N#CCNC(=O)C(=O)NCc1ccccc1C(=O)NC1(c2cccc3nc(Cl)ccc23)CC1 [Example 386]
[1]
  IC50: < 100 nM
[2]
  EC50: < 1000 nM

## C#CCNC(=O)C(=O)NCc1ccccc1C(=O)NC1(c2cccc3nc(Cl)ccc23)CC1 [Example 387]
[1]
  IC50: < 100 nM
[2]
  EC50: < 1000 nM

## O=C(NCC#Cc1nccs1)C(=O)NCc1ccccc1C(=O)NC1(c2ccnc3ccccc23)CC1 [Example 392]
[1]
  IC50: < 100 nM
[2]
  EC50: 1000 to 10000 nM

## O=C(NCC#Cc1nccs1)C(=O)NCc1ccccc1C(=O)NC1(c2cnc3ccccc3c2)CC1 [Example 393]
[1]
  IC50: < 100 nM
[2]
  EC50: 1000 to 10000 nM

## O=C(NCC#Cc1nccs1)C(=O)NCc1ccccc1C(=O)NC1(c2cc3ccccc3cn2)CC1 [Example 394]
[1]
  IC50: < 100 nM
[2]
  EC50: < 1000 nM

## O=C(NCC#Cc1nccs1)C(=O)NCc1ccccc1C(=O)NC1(c2ccc3nc(C4CC4)ccc3c2)CC1 [Example 396]
[1]
  IC50: < 100 nM
[2]
  EC50: < 1000 nM

## Cn1cnc(C#CCNC(=O)C(=O)NCc2ccccc2C(=O)NC2(c3ccc4ccccc4c3)CC2)n1 [Example 398]
[1]
  IC50: < 100 nM
[2]
  EC50: < 1000 nM

## O=C(NCC#Cc1nccs1)C(=O)NCc1ccccc1C(=O)NC1(c2ccn3nccc3c2)CC1 [Example 399]
[1]
  IC50: < 100 nM
[2]
  EC50: < 1000 nM

## C[C@@H](C#Cc1nccs1)NC(=O)C(=O)NCc1ccccc1C(=O)NC1(c2ccnc3c2ccn3C2CC2)CC1 [Example 402]
[1]
  IC50: < 100 nM
[2]
  EC50: < 1000 nM

## CC(C)c1cccnc1C#CCNC(=O)C(=O)NCc1ccccc1C(=O)NC1(c2ccc3ccccc3c2)CC1 [Example 404]
[1]
  IC50: < 100 nM
[2]
  EC50: < 1000 nM

## N#CCNC(=O)C(=O)NCc1ccccc1C(=O)NC1(c2cn(-c3cnn(C4CC4)c3)c3ncccc23)CC1 [Example 409]
[1]
  IC50: < 100 nM
[2]
  EC50: 1000 to 10000 nM

## COc1cc(C2(NC(=O)c3ccccc3CNC(=O)C(=O)NCC#N)CC2)c2cccnc2c1 [Example 411]
[1]
  IC50: < 100 nM
[2]
  EC50: 1000 to 10000 nM

## N#CCNC(=O)C(=O)NCc1ccccc1C(=O)NC1(c2cc(-c3cnn(C4CC4)c3)nc3c2ccn3C2CC2)CC1 [Example 413]
[1]
  IC50: < 100 nM
[2]
  EC50: < 1000 nM
